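Exposure lasted 48 hours, with cells grown in 96-well plates and compounds tested at five concentrations. Here, GI50 denotes the concentration required for 50% inhibition of growth.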 The source made the active and inactive calls. Rule as the data show it: active = GI50 up to about 1.1 µM and inactive = higher. Some results are limits rather than exact numbers.

Common to all, as to assay: DTP human tumour cell line panel, 48 h
For assay [1], the system named is LXFL 529.
Assay [2] relates to RXF 393.
For assay [3], the system named is MDA-MB-435.
In assay [4] the test system is UACC-257.
The test system of assay [5] is NCI-H522.
In assay [6] the test system is T47D.
Assay [7] concerns TK-10.
Assay [8] has as its system SF-295.
For assay [9], the system named is SK-MEL-28.
Assay [10] has as its system SNB-75.
For assay [11], the system named is K562.
Assay [12] concerns Malme-3M.
Assay [13] deals with ACHN.
In assay [14] the test system is HCT-116.
For assay [15], the system named is U-251.
In assay [16] the test system is RPMI-8226.
Assay [17] concerns OVCAR-4.
Assay [18] relates to UO-31.
Assay [19] deals with LOX IMVI.
Assay [20] relates to BT-549.

In the case of `Cc1ccccc1C1=C/C(=C(\SS/C(C(=O)c2ccc(OCC(=O)O)c(Cl)c2Cl)=C2\C=C(c3ccccc3C)SS2)C(=O)c2ccc(OCC(=O)O)c(Cl)c2Cl)SS1`, the GI50 (usually the concentration giving 50% growth inhibition) was 4.45 µM (inactive) in assay [1]; 22.4 µM (inactive) in assay [2]; 36.1 µM (inactive) in assay [3]; 29.4 µM (inactive) in [4]; 4.09 µM (inactive) in assay [5]; 5.16 µM (inactive) in assay [6]. Besides, the GI50 in assay [7] was 35.9 µM (inactive); in assay [8], 31.3 µM (inactive); in [9], 26.4 µM (inactive); in assay [10], 34.7 µM (inactive); in assay [11], 8.65 µM (inactive); in assay [12], 40.1 µM (inactive). The GI50 is 23.2 µM (inactive) in assay [13]; 21.7 µM (inactive) in assay [14]; 8.43 µM (inactive) in [15]; 21.5 µM (inactive) in [16]; 21.1 µM (inactive) in assay [17]; 20.9 µM (inactive) in assay [18]. Besides, the GI50 in assay [19] is 6.82 µM (inactive); in assay [20], 33.3 µM (inactive).
As to `C[C@H]1CC[C@H](NC(=O)N(CCCl)N=O)CC1`, the GI50 in assay [1] was 14.9 µM (inactive); in assay [2], 36 µM (inactive); in assay [3] it was 28.1 µM (inactive); in [4], 46.3 µM (inactive); in assay [5] it was 40 µM (inactive); in assay [6] it was 29.7 µM (inactive). In addition, the GI50 in assay [7] was 63.4 µM (inactive); in [8], 13.4 µM (inactive); in assay [9] it was 46.2 µM (inactive); in assay [10] it was 31.1 µM (inactive); in [11] it was 34.3 µM (inactive); in [12], 47.9 µM (inactive). The GI50 in assay [13] was 49.4 µM (inactive); in assay [14], 39.6 µM (inactive); in assay [15] it was 26.7 µM (inactive); in [16], 31.6 µM (inactive); in assay [17], 31.6 µM (inactive); in assay [18] it was 49.9 µM (inactive). Also, the GI50 in assay [19] was 13 µM (inactive); in assay [20], 24.7 µM (inactive).
Turning to `COc1cc2c(c(OC)c1OC)-c1ccc(SC)c(=O)cc1C(CC(=O)Oc1cccc(F)c1)C2` (configuration not stated), the GI50 was 0.316 µM (active) in assay [1]; 0.129 µM (active) in [2]; 14.9 µM (inactive) in assay [4]; 0.102 µM (active) in [5]; 61.7 µM (inactive) in assay [7]; 0.075 µM (active) in assay [8]. Further, the concentration for 50% growth inhibition (GI50) is 0.621 µM (active) in [9]; 0.138 µM (active) in assay [10]; 0.149 µM (active) in assay [11]; 0.267 µM (active) in assay [12]; 0.243 µM (active) in [13]; 0.321 µM (active) in [14]. The concentration for 50% growth inhibition (GI50) was 0.115 µM (active) in [15]; 0.165 µM (active) in assay [16]; 2.05 µM (inactive) in assay [17]; 0.753 µM (active) in [18]; 0.197 µM (active) in assay [19].
As for `COc1ccc(/C=N/N=C(\N)NO)cc1OC`, the GI50 in assay [1] was 33.9 µM (inactive); in assay [2] it was 30.5 µM (inactive); in [4], 90.4 µM (inactive); in assay [5], 26.3 µM (inactive); in [7], 56.4 µM (inactive); in assay [8], 46.9 µM (inactive). Besides, the GI50 was > 100 µM (inactive) in [9]; 42.9 µM (inactive) in [10]; 11.5 µM (inactive) in assay [11]; 75.2 µM (inactive) in [12]; 25.6 µM (inactive) in assay [13]; 42.8 µM (inactive) in [14]. The GI50 was 38.1 µM (inactive) in assay [15]; > 100 µM (inactive) in assay [16]; 99.1 µM (inactive) in assay [17]; 28.1 µM (inactive) in assay [18]; 30.3 µM (inactive) in assay [19].
`Cc1ccc(C(=O)Nc2ccc(S(=O)(=O)O)c3cc(S(=O)(=O)O)cc(S(=O)(=O)O)c23)cc1NC(=O)c1cccc(NC(=O)Nc2cccc(C(=O)Nc3cc(C(=O)Nc4ccc(S(=O)(=O)O)c5cc(S(=O)(=O)O)cc(S(=O)(=O)O)c45)ccc3C)c2)c1` [SURAMIN]: the GI50 is > 100 µM (inactive) in [1]; > 92.7 µM (inactive) in assay [2]; > 100 µM (inactive) in [3]; > 100 µM (inactive) in [4]; 88.5 µM (inactive) in [5]; > 100 µM (inactive) in assay [6]. Also, the GI50 in assay [7] was 32 µM (inactive); in assay [8] it was 69 µM (inactive); in [9], > 91.6 µM (inactive); in assay [10], 48.2 µM (inactive); in [11], > 93.5 µM (inactive); in [12], > 83 µM (inactive). Further, the GI50 in [13] was 97.9 µM (inactive); in [14], 76 µM (inactive); in assay [15], 77.3 µM (inactive); in assay [16] it was > 100 µM (inactive); in assay [17], 79.3 µM (inactive); in [18] it was 39.4 µM (inactive). For the same molecule, the figures for the GI50 in [19] and in [20] were 51.1 µM (inactive) and 95.7 µM (inactive), respectively.
Regarding `CC(C)C(Nc1c2ccccc2nc2ccccc12)C(=O)O` (configuration not stated), the GI50 in [1], in assay [2], in [4], in [5], in assay [7] and in assay [8] was > 100 µM (inactive) throughout. Moreover, the GI50 in assay [9] is > 100 µM (inactive); in [10] it was > 100 µM (inactive); in [11], > 100 µM (inactive); in [12] it was > 100 µM (inactive); in assay [13], 49.2 µM (inactive); in assay [14], 43.3 µM (inactive). Also, the GI50 in assay [15] is > 100 µM (inactive); in [16], 32.5 µM (inactive); in assay [17] it was 20.7 µM (inactive); in assay [18], 29.1 µM (inactive); in assay [19], 55.1 µM (inactive).
For the molecule `C[C@H](OCc1ccccc1)C(=O)N1CCS(=O)(=O)N2CCC[C@H]2C1=O`, the GI50 in [1], in assay [2], in assay [4], in [5], in assay [7] and in assay [8] was > 100 µM (inactive) throughout. Also, the GI50 in assay [9], in assay [10], in assay [11], in [12], in assay [13] and in assay [14] was > 100 µM (inactive) each time. For the same molecule, the GI50 in assay [15], in [16], in [17], in [18] and in assay [19] was > 100 µM (inactive) each time.
Turning to `CCOc1ccc(/C=C\c2cc(OC)c(OC)c(OC)c2)cc1`, the GI50 is < 0.0001 µM (active) in [1]; < 0.0001 µM (active) in assay [2]; 0.01 µM (active) in [4]; < 0.0001 µM (active) in assay [5]; 29.6 µM (inactive) in assay [7]; < 0.0001 µM (active) in assay [8]. For the same molecule, the GI50 in [9] was 0.000235 µM (active); in assay [10], < 0.0001 µM (active); in assay [11], < 0.0001 µM (active); in [12], 0.00139 µM (active); in [13] it was 0.01 µM (active); in assay [14], 0.00033 µM (active). The concentration for 50% growth inhibition (GI50) in assay [15] was 0.000172 µM (active); in assay [16] it was 0.000443 µM (active); in assay [17], 0.114 µM (active); in assay [18], 0.00041 µM (active); in assay [19] it was 0.000291 µM (active).
For the molecule `COc1ccc(OC)c(CCc2ccccc2CC(=O)O)c1`, the GI50 in [1], in [2], in [4], in assay [5], in assay [7] and in assay [8] was > 100 µM (inactive) in each case. For the same molecule, the GI50 in assay [9] was > 100 µM (inactive); in assay [10], 35.5 µM (inactive); in assay [11] it was > 100 µM (inactive); in assay [12] it was > 100 µM (inactive); in [13] it was > 100 µM (inactive); in assay [14], > 100 µM (inactive). Also, the GI50 in [15], in [16], in [17], in [18] and in assay [19] was > 100 µM (inactive) each time.
In the case of `S=P(N1CC1)(N1CC1)N1CC1` [THIOTEPA], the GI50 in [1] is 146 µM (inactive); in [2] it was 101 µM (inactive); in assay [3] it was 158 µM (inactive); in [4] it was 134 µM (inactive); in assay [5], 101 µM (inactive); in [6] it was 171 µM (inactive). For the same molecule, the GI50 in assay [7] was 333 µM (inactive); in [8], 33.1 µM (inactive); in [9] it was 186 µM (inactive); in assay [10], 97.3 µM (inactive); in assay [11], 143 µM (inactive); in [12], 141 µM (inactive). Also, the GI50 in assay [13] was 14.6 µM (inactive); in assay [14], 116 µM (inactive); in [15], 58.7 µM (inactive); in assay [16], 176 µM (inactive); in assay [17], 188 µM (inactive); in assay [18], 97.9 µM (inactive). The GI50 is 39.6 µM (inactive) in [19] and 175 µM (inactive) in assay [20].

For the origin of these results see ChEMBL document CHEMBL1201862, “PubChem BioAssay data set” (2004).
